Holding throughout (assay): NCI tumour cell line growth inhibition, 48 h
In assay [1] the test system is 786-0 renal.
Assay [2] has as its system LOX IMVI melanoma.
The subject of assay [3] is MOLT-4 leukemia.
In assay [4] the test system is OVCAR-4 ovarian.
In assay [5] the test system is OVCAR-8 ovarian.
Assay [6] deals with RXF 393 renal.
Assay [7] has as its system SK-MEL-2 melanoma.
The test system of assay [8] is SR leukemia.

SMILES strings stand for the structures.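 All cell lines were grown in 96-well plates and treated with compound for 48 hours. GI50 is the concentration that inhibits growth by half. At the TGI there is no net growth.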

`COC(=O)C(C)NP(=O)(OCc1ccc(Cn2cnc3c(=O)[nH]c(N)nc32)cc1)Oc1ccccc1` (configuration not stated): the GI50 in assay [1], in assay [2], in assay [3], in assay [4], in assay [5] and in assay [6] was greater than 100 µM in each case. Besides, the GI50 in assay [7] and in assay [8] was greater than 100 µM each time. Further, the TGI in assay [1], in assay [2], in assay [3], in assay [4], in assay [5] and in assay [6] was greater than 100 µM throughout. Besides, the TGI in assay [7] and in assay [8] was greater than 100 µM in each case.
`CN[C@]12CC3(C=CC(=O)C=C3)O[C@@]1(Cc1ccc(OC)cc1)N(C)C(=O)N2`: the GI50 was 2.03 µM in assay [1]; 1.56 µM in assay [2]; 2.8 µM in assay [3]; 3.89 µM in assay [4]; 2.53 µM in assay [5]; 1.82 µM in assay [6]. The figures for the GI50 in assay [7] and in assay [8] were 2.96 µM and 1.15 µM, respectively. The TGI worked out at 4.12 µM in assay [1]; 3.2 µM in assay [2]; 9.88 µM in assay [3]; 19.1 µM in assay [4]; 21.3 µM in assay [5]; 3.6 µM in assay [6]. Besides, the TGI was found to be 10.9 µM in assay [7] and 20.1 µM in assay [8].
In the case of `CCOC(=O)c1c(C)nc2ccc(Cl)cc2c1-c1ccccc1`, the GI50 in assay [1] is 17 µM; in assay [2], 17.7 µM; in assay [3], 16.3 µM; in assay [4], 20.6 µM; in assay [5] it was 26.7 µM; in assay [6] it was 17.3 µM. Also, the results for the GI50 in assay [7] and in assay [8] were 15 µM and 18.4 µM, respectively. The TGI in assay [1] was 35.1 µM; in assay [2], 37.8 µM; in assay [3] it was 43.4 µM; in assay [4], 66.6 µM; in assay [5], greater than 100 µM; in assay [6] it was 47.4 µM. Besides, the TGI came to 34.1 µM in assay [7] and 48.5 µM in assay [8].
As to `COc1ccc(N(CC(=O)NCCC[Te]c2ccccc2)C(=O)CCSC2=C(C)C(=O)c3ccccc3C2=O)cc1`, the GI50 in assay [1] is 2.32 µM; in assay [2] it was 1.5 µM; in assay [3], 0.911 µM; in assay [4], 2.95 µM; in assay [5], 0.722 µM; in assay [6], 2.07 µM. In addition, the results for the GI50 in assay [7] and in assay [8] were 2.31 µM and 0.498 µM, respectively. The TGI in assay [1] was determined as 4.91 µM; in assay [2] it was 3.54 µM; in assay [4], 11.2 µM; in assay [5], 6.06 µM; in assay [6], 4.47 µM; in assay [7], 5.49 µM. In assay [8], this compound showed a TGI greater than 100 µM.
As for `COc1cc(/C=C2\CN(C)C/C(=C\c3cc(OC)c(OC)c(OC)c3)C2=O)cc(OC)c1OC`, the GI50 is 0.27 µM in assay [1]; 0.141 µM in assay [2]; 0.323 µM in assay [3]; 0.342 µM in assay [4]; 0.312 µM in assay [5]; 0.199 µM in assay [6]. For the same compound, the GI50 in assay [7] was 0.305 µM; in assay [8], 0.24 µM. Further, the TGI in assay [2] amounted to 0.37 µM; in assay [3] it was 4.5 µM; in assay [4], 1.95 µM; in assay [5], 75.7 µM; in assay [6] it was 0.389 µM; in assay [7], 0.959 µM. In assay [8], this compound showed a TGI of 1.41 µM.
On to `O=[N+]([O-])c1cc(CCl)ccc1CCl`, for which the TGI in assay [1] was determined as 3.34 µM; in assay [2], 4.12 µM; in assay [3], 12.6 µM; in assay [4] it was 3.22 µM; in assay [5], 7.17 µM; in assay [6], 1.65 µM. The TGI in assay [7] was 7.83 µM; in assay [8], 5.17 µM.
Turning to `O=C(Nc1ccccc1)Nc1cccc(-n2cc(-c3ccncc3)c(-c3ccc(O)c(Cl)c3)n2)c1`, the GI50 in assay [1] is 3.24 µM; in assay [2], 2.54 µM; in assay [3], 2.92 µM; in assay [4] it was 3.45 µM; in assay [5], 3.27 µM; in assay [6] it was 2.43 µM. Also, the values for the GI50 in assay [7] and in assay [8] were 2.49 µM and 2.35 µM, respectively. For the same compound, the TGI in assay [1] amounted to 11.7 µM; in assay [2] it was 25.6 µM; in assay [3], 9.03 µM; in assay [4] it was 25.7 µM; in assay [5], 21 µM; in assay [6], 9.63 µM. Also, the values for the TGI in assay [7] and in assay [8] were 5.63 µM and 6.29 µM, respectively.
Consider `O=C(O)c1ccc2c(c1Nc1ccccc1)C(=O)c1ccccc1C2=O`, for which the GI50 in assay [1] was 39.4 µM; in assay [2], 28.9 µM; in assay [3], greater than 100 µM; in assay [4], 86.1 µM; in assay [5], 72.6 µM; in assay [6] it was 26.3 µM. Further, the GI50 in assay [7] was 51.7 µM; in assay [8], 41 µM. For the same compound, the TGI in assay [1], in assay [2], in assay [3], in assay [4], in assay [5] and in assay [6] was greater than 100 µM each time. The TGI in assay [7] and in assay [8] was greater than 100 µM throughout.
As to `NC1=C(Cl)C(=O)c2ccc(S(N)(=O)=O)cc2C1=O`, the GI50 was 1.82 µM in assay [1]; 0.0367 µM in assay [2]; 0.515 µM in assay [3]; 0.324 µM in assay [4]; 0.273 µM in assay [5]; 0.286 µM in assay [6]. Besides, the GI50 is 0.192 µM in assay [7] and 0.262 µM in assay [8]. In addition, the TGI was determined as 3.24 µM in assay [1]; 0.182 µM in assay [2]; 3.22 µM in assay [3]; 1.01 µM in assay [4]; 0.977 µM in assay [5]; 0.903 µM in assay [6]. For the same compound, the TGI was determined as 0.487 µM in assay [7] and 0.606 µM in assay [8].
As to `O=C1N=C(c2ccccc2)OC1C(=O)c1ccccc1` (configuration not stated), the TGI in assay [1], in assay [2], in assay [3], in assay [4], in assay [5] and in assay [6] was greater than 100 µM throughout. The TGI in assay [7] and in assay [8] was greater than 100 µM in each case.

The values above are taken from PubChem BioAssay (NCI).
